Assay results from publication PMC4019636, “Rational Design of Berberine-Based FtsZ Inhibitors with Broad-Spectrum Antibacterial Activity” (PLoS ONE, 2014).

test system: B. subtilis 168; test: Antimicrobial susceptibility assay (broth microdilution MIC); type: cell-based; conditions: Bacillus subtilis; B. subtilis 168; Mueller Hinton broth, 18 h at 37°C; growth inhibited by ≥90%; read-out: MIC
Source text: (§1) The bacterial strains S. aureus ATCC 29213, S. aureus ATCC 29247, S. aureus ATCC BAA-41, E. faecium ATCC 49624, E. faecium ATCC 700221, E. faecalis ATCC 29212, S. epidermidis ATCC 12228, E. coli ATCC 25922, and K. pneumoniae ATCC BAA-1144 used in the antimicrobial susceptibility assays were purchased from American Type Culture Collection (ATCC, USA). B. subtilis strain 168 was already available in our in-house collection. E. coli JM109 WM647 was kindly provided by Dr. W. Margolin (University of Texas-Houston Medical School). FM 4–64 was purchased from Invitrogen (Eugene, Oregon). All other chemicals and reagents were purchased from Sigma-Aldrich. Stock solutions were prepared in DMSO. The final percentage of DMSO in the assays was 1% (v/v) for all experiments.
(§2) Antimicrobial susceptibility tests were conducted in 96-well microplates using the broth microdilution procedure described in the Clinical and Laboratory Standards Institute (CLSI) guidelines. Cation-adjusted Mueller Hinton broth for S. aureus strain ATCC 29213, methicillin-resistant S. aureus strain ATCC BAA-41 and ampicillin-resistant S. aureus strain ATCC 29247, or brain heart infusion broth for antibiotic-susceptible E. faecium strain ATCC 49624 and vancomycin-resistant E. faecium strain ATCC 700221, or Mueller Hinton broth for antibiotic-susceptible strains B. subtilis strain 168, E. faecalis strain ATCC 29212 and E. coli strain ATCC 25922 were used in the assays. After incubation for 18 h at 37°C, the absorbance at 600 nm (A600) was recorded using a microplate reader (Bio-Rad laboratory Ltd., UK) and the percentage of bacterial cell inhibition with respect to vehicles (1% DMSO) was calculated. The MIC was defined as the lowest compound concentration at which the growth of bacteria was inhibited by ≥90%. Three independent assays were performed for each test.

Question: How did the MIC turn out when COc1ccc2cc3[n+](cc2c1OCCCOc1ccccc1C)CCc1cc2c(cc1-3)OCO2 [Compound 4] was run?
Answer: 8 µg/mL

Question: COc1ccc2cc3[n+](cc2c1OC)CCc1cc2c(cc1-3)OCO2 [Berberine, Berberine chloride] was tested. Which MIC did it give?
Answer: 128 µg/mL

Question: Which MIC does the source give for COc1ccc2cc3[n+](cc2c1OCCCOc1ccc([N+](=O)[O-])cc1)CCc1cc2c(cc1-3)OCO2 [Compound 5] here?
Answer: 8 µg/mL

Question: With COc1ccc2cc3[n+](cc2c1OCCCCOc1ccccc1)CCc1cc2c(cc1-3)OCO2 [Compound 6] as the molecule, how does the MIC read?
Answer: 8 µg/mL

test system: E. coli ATCC 25922; test: as above; type: cell-based; conditions: Escherichia coli, ATCC25922; E. coli ATCC 25922; Mueller Hinton broth, 18 h at 37°C; growth inhibited by ≥90%; read-out: MIC
Source text: as §1, §2

Question: With COc1ccc2cc3[n+](cc2c1OCCCOc1ccccc1C)CCc1cc2c(cc1-3)OCO2 [Compound 4] as the molecule, how does the MIC read?
Answer: 96 µg/mL

Question: For COc1ccc2cc3[n+](cc2c1OC)CCc1cc2c(cc1-3)OCO2 [Berberine, Berberine chloride], which MIC is on record?
Answer: > 500 µg/mL

Question: For COc1ccc2cc3[n+](cc2c1OCCCOc1ccc([N+](=O)[O-])cc1)CCc1cc2c(cc1-3)OCO2 [Compound 5], which MIC is on record?
Answer: 32 µg/mL

Question: With COc1ccc2cc3[n+](cc2c1OCCCCOc1ccccc1)CCc1cc2c(cc1-3)OCO2 [Compound 6] as the molecule, how does the MIC read?
Answer: 96 µg/mL

test system: E. faecalis ATCC 29212; test: as above; type: cell-based; conditions: Enterococcus faecalis, ATCC29212; E. faecalis ATCC 29212; Mueller Hinton broth, 18 h at 37°C; growth inhibited by ≥90%; read-out: MIC
Source text: as §1, §2

Question: With COc1ccc2cc3[n+](cc2c1OCCCOc1ccccc1C)CCc1cc2c(cc1-3)OCO2 [Compound 4] as the molecule, how does the MIC read?
Answer: 8 µg/mL

Question: For COc1ccc2cc3[n+](cc2c1OC)CCc1cc2c(cc1-3)OCO2 [Berberine, Berberine chloride], which MIC is on record?
Answer: > 196 µg/mL

Question: With COc1ccc2cc3[n+](cc2c1OCCCOc1ccc([N+](=O)[O-])cc1)CCc1cc2c(cc1-3)OCO2 [Compound 5] as the molecule, how does the MIC read?
Answer: 8 µg/mL

Question: COc1ccc2cc3[n+](cc2c1OCCCCOc1ccccc1)CCc1cc2c(cc1-3)OCO2 [Compound 6] was tested. Which MIC did it give?
Answer: 16 µg/mL

test system: K. pneumoniae ATCC BAA-1144; test: as above; type: cell-based; conditions: Klebsiella pneumoniae, ATCCBAA1144; K. pneumoniae ATCC BAA-1144 (Gram-negative, expressing AmpC β-lactamase); 18 h at 37°C; growth inhibited by ≥90%; read-out: MIC
Source text: as §1, §2

Question: For COc1ccc2cc3[n+](cc2c1OCCCOc1ccccc1C)CCc1cc2c(cc1-3)OCO2 [Compound 4], which MIC is on record?
Answer: 64 µg/mL

Question: With COc1ccc2cc3[n+](cc2c1OC)CCc1cc2c(cc1-3)OCO2 [Berberine, Berberine chloride] as the molecule, how does the MIC read?
Answer: > 500 µg/mL

Question: For COc1ccc2cc3[n+](cc2c1OCCCOc1ccc([N+](=O)[O-])cc1)CCc1cc2c(cc1-3)OCO2 [Compound 5], which MIC is on record?
Answer: 64 µg/mL

Question: With COc1ccc2cc3[n+](cc2c1OCCCCOc1ccccc1)CCc1cc2c(cc1-3)OCO2 [Compound 6] as the molecule, how does the MIC read?
Answer: 128 µg/mL

test system: S. aureus ATCC 29213; test: as above; type: cell-based; conditions: Staphylococcus aureus, ATCC29213; S. aureus ATCC 29213; cation-adjusted Mueller Hinton broth, 18 h at 37°C; growth inhibited by ≥90%; read-out: MIC
Source text: as §1, §2

Question: Which MIC does the source give for COc1ccc2cc3[n+](cc2c1OCCCOc1ccccc1C)CCc1cc2c(cc1-3)OCO2 [Compound 4] here?
Answer: 4 µg/mL

Question: How did the MIC turn out when COc1ccc2cc3[n+](cc2c1OC)CCc1cc2c(cc1-3)OCO2 [Berberine, Berberine chloride] was run?
Answer: 128 µg/mL

Question: For COc1ccc2cc3[n+](cc2c1OCCCOc1ccc([N+](=O)[O-])cc1)CCc1cc2c(cc1-3)OCO2 [Compound 5], which MIC is on record?
Answer: 2 µg/mL

Question: How did the MIC turn out when COc1ccc2cc3[n+](cc2c1OCCCCOc1ccccc1)CCc1cc2c(cc1-3)OCO2 [Compound 6] was run?
Answer: 4 µg/mL

test system: S. aureus ATCC 29247; test: as above; type: cell-based; conditions: Staphylococcus aureus, ATCC29247; S. aureus ATCC 29247 (ampicillin-resistant); 18 h at 37°C; growth inhibited by ≥90%; read-out: MIC
Source text: as §1, §2

Question: How did the MIC turn out when COc1ccc2cc3[n+](cc2c1OCCCOc1ccccc1C)CCc1cc2c(cc1-3)OCO2 [Compound 4] was run?
Answer: 4 µg/mL

Question: How did the MIC turn out when COc1ccc2cc3[n+](cc2c1OC)CCc1cc2c(cc1-3)OCO2 [Berberine, Berberine chloride] was run?
Answer: 128 µg/mL

Question: COc1ccc2cc3[n+](cc2c1OCCCOc1ccc([N+](=O)[O-])cc1)CCc1cc2c(cc1-3)OCO2 [Compound 5] was tested. Which MIC did it give?
Answer: 2 µg/mL

Question: For COc1ccc2cc3[n+](cc2c1OCCCCOc1ccccc1)CCc1cc2c(cc1-3)OCO2 [Compound 6], which MIC is on record?
Answer: 4 µg/mL

test system: S. aureus ATCC BAA-41; test: as above; type: cell-based; conditions: Staphylococcus aureus, ATCCBAA41; S. aureus ATCC BAA-41 (methicillin-resistant); 18 h at 37°C; growth inhibited by ≥90%; read-out: MIC
Source text: as §1, §2

Question: How did the MIC turn out when COc1ccc2cc3[n+](cc2c1OCCCOc1ccccc1C)CCc1cc2c(cc1-3)OCO2 [Compound 4] was run?
Answer: 4 µg/mL

Question: COc1ccc2cc3[n+](cc2c1OC)CCc1cc2c(cc1-3)OCO2 [Berberine, Berberine chloride] was tested. Which MIC did it give?
Answer: 196 µg/mL

Question: COc1ccc2cc3[n+](cc2c1OCCCOc1ccc([N+](=O)[O-])cc1)CCc1cc2c(cc1-3)OCO2 [Compound 5] was tested. Which MIC did it give?
Answer: 2 µg/mL

Question: COc1ccc2cc3[n+](cc2c1OCCCCOc1ccccc1)CCc1cc2c(cc1-3)OCO2 [Compound 6] was tested. Which MIC did it give?
Answer: 4 µg/mL

test system: S. epidermidis ATCC 12228; test: as above; type: cell-based; conditions: Staphylococcus epidermidis, ATCC12228; S. epidermidis ATCC 12228; 18 h at 37°C; growth inhibited by ≥90%; read-out: MIC
Source text: as §1, §2

Question: For COc1ccc2cc3[n+](cc2c1OCCCOc1ccccc1C)CCc1cc2c(cc1-3)OCO2 [Compound 4], which MIC is on record?
Answer: 4 µg/mL

Question: With COc1ccc2cc3[n+](cc2c1OC)CCc1cc2c(cc1-3)OCO2 [Berberine, Berberine chloride] as the molecule, how does the MIC read?
Answer: 128 µg/mL

Question: COc1ccc2cc3[n+](cc2c1OCCCOc1ccc([N+](=O)[O-])cc1)CCc1cc2c(cc1-3)OCO2 [Compound 5] was tested. Which MIC did it give?
Answer: 2 µg/mL

Question: With COc1ccc2cc3[n+](cc2c1OCCCCOc1ccccc1)CCc1cc2c(cc1-3)OCO2 [Compound 6] as the molecule, how does the MIC read?
Answer: 4 µg/mL

test system: antibiotic-susceptible and antibiotic-resistant S. aureus strains; test: Antimicrobial susceptibility assay, summary over S. aureus strains; type: cell-based; conditions: Staphylococcus aureus
Source text: as §1, §2

Question: For COc1ccc2cc3[n+](cc2c1OCCCOc1ccccc1C)CCc1cc2c(cc1-3)OCO2 [Compound 4], which MIC is on record?
Answer: 2 to 8 µg/mL

Question: COc1ccc2cc3[n+](cc2c1OC)CCc1cc2c(cc1-3)OCO2 [Berberine, Berberine chloride] was tested. Which MIC did it give?
Answer: 128 to 196 µg/mL

Question: How did the MIC turn out when COc1ccc2cc3[n+](cc2c1OCCCOc1ccc([N+](=O)[O-])cc1)CCc1cc2c(cc1-3)OCO2 [Compound 5] was run?
Answer: 2 to 8 µg/mL

Question: With COc1ccc2cc3[n+](cc2c1OCCCCOc1ccccc1)CCc1cc2c(cc1-3)OCO2 [Compound 6] as the molecule, how does the MIC read?
Answer: 2 to 8 µg/mL

test system: vancomycin-susceptible and vancomycin-resistant E. faecium; test: Antimicrobial susceptibility assay, summary over E. faecium strains; type: cell-based; conditions: Enterococcus faecium
Source text: as §1, §2

Question: COc1ccc2cc3[n+](cc2c1OCCCOc1ccccc1C)CCc1cc2c(cc1-3)OCO2 [Compound 4] was tested. Which MIC did it give?
Answer: 4 to 16 µg/mL

Question: With COc1ccc2cc3[n+](cc2c1OC)CCc1cc2c(cc1-3)OCO2 [Berberine, Berberine chloride] as the molecule, how does the MIC read?
Answer: > 196 µg/mL

Question: Which MIC does the source give for COc1ccc2cc3[n+](cc2c1OCCCOc1ccc([N+](=O)[O-])cc1)CCc1cc2c(cc1-3)OCO2 [Compound 5] here?
Answer: 4 to 16 µg/mL

Question: Which MIC does the source give for COc1ccc2cc3[n+](cc2c1OCCCCOc1ccccc1)CCc1cc2c(cc1-3)OCO2 [Compound 6] here?
Answer: 4 to 16 µg/mL

test system: Gram-negative strains E. coli and K. pneumoniae (expressing AmpC β-lactamase); test: Antimicrobial susceptibility assay, summary over Gram-negative strains; type: cell-based; conditions: Escherichia coli, read-out: MIC values
Source text: as §1, §2

Question: How did the MIC turn out when COc1ccc2cc3[n+](cc2c1OC)CCc1cc2c(cc1-3)OCO2 [Berberine, Berberine chloride] was run?
Answer: > 500 µg/mL

same assay, conditions: Escherichia coli; Gram-negative strains E. coli and K. pneumoniae; read-out: MIC values

Question: Which MIC does the source give for COc1ccc2cc3[n+](cc2c1OCCCOc1ccccc1C)CCc1cc2c(cc1-3)OCO2 [Compound 4] here?
Answer: 32 to 128 µg/mL

Question: With COc1ccc2cc3[n+](cc2c1OCCCOc1ccc([N+](=O)[O-])cc1)CCc1cc2c(cc1-3)OCO2 [Compound 5] as the molecule, how does the MIC read?
Answer: 32 to 128 µg/mL

Question: For COc1ccc2cc3[n+](cc2c1OCCCCOc1ccccc1)CCc1cc2c(cc1-3)OCO2 [Compound 6], which MIC is on record?
Answer: 32 to 128 µg/mL
